Results on one molecule are retold here after US11505528B2, “Inhibitors of microbially induced amyloid” (Axial Therapeutics, Inc., priority 2017, dated 2022).

In test [1] the test system is αSyn aggregates. Put plainly: αSyn aggregates in brain of ASO mice mono-colonized with WT E. coli, EGCG in drinking water. The test is classed as in vivo.
Test [2] has as its system Thy1-αSyn mice (ASO) mono-colonized with WT E. coli. As to the kind of experiment: Motor function of germ-free Thy1-αSyn (ASO) mice mono-colonized with WT E. coli, EGCG in drinking water. The test is classed as in vivo.
Setting [3] is: 15-16 weeks of age, EGCG ad lib in drinking water, vs vehicle treated control.

Entries after “also recorded” stand apart in the source; their conditions may differ.

In the case of `O=C(O[C@@H]1Cc2c(O)cc(O)cc2O[C@@H]1c1cc(O)c(O)c(O)c1)c1cc(O)c(O)c(O)c1` [EGCG, epigallocatechin gallate], in test [1] (EGCG treatment), the “αSyn aggregation in the striatum and midbrain” value was “preventing”. In addition, the “Proteinase K resistant αSyn aggregates in the substantia nigra” value in test [1] (immunofluorescence microscopy, EGCG-treated vs vehicle/untreated controls) is “lower; also recorded: Fewer”. In addition, in test [2] (setting [3]), the “beam traversal time (time to cross)” value is “lower”, the hindlimb clasping score result is reported as “lower”, the “nasal adhesive removal time (time to remove)” value is “lower” and the “pole descent time (time to descent)” value is given as “lower”. Also, the “wire hang test (time to fall)” value in test [2] (setting [3]) is listed as “higher”. Further, in test [2] (assessment of motor performance, EGCG treatment), the “progressive motor deficits exacerbated by E. coli” value was “dampens”.
